Values of other authors in US20220054404A1, “SUBCUTANEOUS ADMINISTRATION OF NANOPARTICLES COMPRISING AN MTOR INHIBITOR AND ALBUMIN FOR TREATMENT OF DISEASES” (Abraxis BioScience, LLC, priority 2019, published 2022).

Tested on: ABCB1/ABCG2

## COc1ccc(COc2cc3oc(=O)c4cc(C(C)O)ccc4c3cc2OC)cc1 (stereo not shown) [Palomid 529]
  Affinity for ABCB1/ABCG2: lacks affinity for ABCB1/ABCG2
